These results are taken from US20140171465A1, “Methods For Increasing Reticulocyte Hemoglobin Content” (FibroGen, Inc., priority 2011, published 2014).

What all share (type): in vivo
In data set [1] the test system is human subjects with end-stage renal disease. Description: Mean hemoglobin levels in human subjects with end-stage renal disease, 6 weeks TIW. As to conditions: six week treatment period; Compound A 1.5 mg/kg and 2.0 mg/kg TIW; epoetin alfa TIW.
Data set [2] has the same test system. The experiment in a line: Reticulocyte hemoglobin content (CHr) in human subjects with end-stage renal disease, 6 weeks TIW. As to conditions: for Mean Change (pg) from Baseline CHr at Day 43 (6 weeks) of Treatment: ESRD on hemodialysis, no IV iron. On the procedure: The effect of a compound of the present invention on CHr was determined in human subjects with end-stage renal disease as follows. In the current studies, subjects had been receiving stable maintenance hemodialysis for at least 4 months prior to the initiation of the present study. Additionally, subjects had been maintained on standard of care stable doses of epoetin alfa for the treatment of anemia prior to initiation of the present study.
In order to examine differences in the CHr response in subjects treated with compound of the invention compared to the CHr response in subject treated with epoetin alpha (the current standard of care), all IV iron supplementation was halted two weeks prior to treatment initiation. Administration of oral iron was allowed.
[…] Baseline CHr levels were determined prior to treatment (mean of two screening period measurements with the Day 1 measurement). CHr levels were measured weekly throughout the six-week study period.
In contrast, CHr decreased in subjects treated with epoetin alfa during the same time period.

For data set [3], the system named is human patients. The experiment in a line: Safety and efficacy of tested doses in human patients. As to conditions: doses between 0.7 and 2.5 mg/kg administered TIW, BIW, or QW. The text has this:
In a particular embodiment, the present invention provides an efficacious therapeutic compound for treating a subject having reduced reticulocyte hemoglobin content. Specifically, the invention comprises the compound [(4-hydroxy-1-methyl-7-phenoxy-isoquinoline-3-carbonyl)-amino]-acetic acid for use in methods of increasing reticulocyte hemoglobin content (CHr) in a subject.

Data set [4] has as its system human subjects with stage 3 and stage 4 chronic kidney disease. The experiment in a line: Reticulocyte hemoglobin content (CHr) in human subjects with stage 3 or stage 4 chronic kidney disease, 17 weeks. On the procedure: The effect of compound of the present invention on CHr was determined in human subjects with stage 3 and stage 4 chronic kidney disease patients (eGFR<60 ml/min) as follows. Subjects with stage 3 or stage 4 chronic kidney disease not receiving dialysis were administered Compound A at either approximately 1.2 mg/kg twice weekly or 70 mg fixed dose thrice weekly for a period of 17 weeks. Dose adjustments were permitted from week 5 onward to correct and maintain subjects to a target hemoglobin range; however, doses were not allowed to exceed 2.5 mg/kg per dose. CHr values were measured at week 9 and week 17.

`Cc1nc(C(=O)NCC(=O)O)c(O)c2ccc(Oc3ccccc3)cc12` [Compound A, [(4-hydroxy-1-methyl-7-phenoxy-isoquinoline-3-carbonyl)-amino]-acetic acid]: the “changes in mean hemoglobin levels (FIG. 2)” value in data set [1] is on record as “time-dependent increase in mean hemoglobin levels”. The “Mean Change (pg) from Baseline CHr at Day 43 (6 weeks) of Treatment” value in data set [2] (1 mg/kg TIW, N = 10) is “+0.41 pg”; in data set [2] (1.5 mg/kg TIW, N = 9) it was “+0.10 pg”; in data set [2] (2.0 mg/kg TIW, N = 9), “+0.44 pg”. Moreover, the “mean increase in CHr over baseline after 6 weeks of treatment” value in data set [2] (1.3 mg/kg TIW (N=5)) is 0.85 pg/cell; in data set [2] (1.8 mg/kg TIW (N=5)) it was 0.82 pg/cell. For the same molecule, the “change from baseline of the mean CHr over time (FIG. 1)” value in data set [2] (six week treatment period, Compound A 1.0, 1.5 and 2.0 mg/kg TIW, epoetin alfa TIW) is “increase in mean CHr over time”. Further, the “safety and efficacy of tested doses” value in data set [3] was “safe, useful, and effective”. Also, the “maintenance of mean CHr (FIG. 3B)” value in data set [4] (70 mg fixed dose TIW, weeks 9 to 17) is “maintenance of mean CHr from 9 to 17 weeks”. The “mean CHr over time (FIG. 3A, 3B)” value in data set [4] (approximately 1.2 mg/kg BIW or 70 mg TIW, 17 weeks, CKD stage 3/4 not on dialysis) is reported as “mean CHr increased over time”.
